# From ChEMBL document CHEMBL3813649, “The influence of halogen substituents on the biological properties of sulfur-containing flavonoids” (2016)
# Experiments:
# Type in all cases: functional
# Staphylococcus aureus [1] = assay: Antibacterial activity against Staphylococcus aureus ATCC 25923 after 18 hrs by microbroth dilution assay
# Escherichia coli [2] = assay: Antibacterial activity against Escherichia coli ATCC 25922 after 18 hrs by microbroth dilution assay
# Staphylococcus aureus [3] = assay: Bactericidal activity against Staphylococcus aureus ATCC 25923 after 18 hrs by microbroth dilution assay; conditions: ATCC 25923, 18 h
# Escherichia coli [4] = assay: Bactericidal activity against Escherichia coli ATCC 25922 after 18 hrs by microbroth dilution assay; conditions: ATCC 25922, 18 h
# [5] = Staphylococcus aureus, ATCC 25923, 18 h, read-out: MIC
# [6] = Escherichia coli, ATCC 25922, 18 h, read-out: MIC
SMILES,MIC (Staphylococcus aureus [1]; [5]),MIC (Escherichia coli [2]; [6]),MBC (Staphylococcus aureus [3]),MBC (Escherichia coli [4]),MIC (Staphylococcus aureus [1]),MIC (Escherichia coli [2])
CCN(CC)[c+]1sc2c(s1)C(c1ccc(Cl)cc1)Oc1ccccc1-2.F[B-](F)(F)F (stereo not drawn),3.9 µg/mL,125 µg/mL,7.81 µg/mL,125 µg/mL,,
CCN(CC)[c+]1sc2c(s1)C(c1ccc(Br)cc1)Oc1ccccc1-2.F[B-](F)(F)F (stereo not drawn),1.95 µg/mL,62.5 µg/mL,1.95 µg/mL,125 µg/mL,,
CCN(CC)[c+]1sc2c(s1)C(c1ccccc1)Oc1ccccc1-2.F[B-](F)(F)F (stereo not drawn),62.5 µg/mL,62.5 µg/mL,250 µg/mL,250 µg/mL,,
CCN(CC)[c+]1sc2c(s1)C(c1ccc(Br)cc1)Oc1ccc(Cl)cc1-2.F[B-](F)(F)F (stereo not drawn),0.24 µg/mL,3.9 µg/mL,3.9 µg/mL,1.95 µg/mL,,
CCN(CC)[c+]1sc2c(s1)C(c1ccccc1)Oc1ccc(F)cc1-2.F[B-](F)(F)F (stereo not drawn),7.81 µg/mL,62.5 µg/mL,15.6 µg/mL,125 µg/mL,,
CCN(CC)[c+]1sc2c(s1)C(c1ccc(I)cc1)Oc1ccccc1-2.F[B-](F)(F)F (stereo not drawn),0.97 µg/mL,31.2 µg/mL,1.95 µg/mL,62.5 µg/mL,,
CCN(CC)[c+]1sc2c(s1)C(c1ccc(Cl)cc1)Oc1ccc(F)cc1-2.F[B-](F)(F)F (stereo not drawn),3.9 µg/mL,15.6 µg/mL,7.81 µg/mL,15.6 µg/mL,,
CCN(CC)[c+]1sc2c(s1)C(c1ccc(I)cc1)Oc1ccc(F)cc1-2.F[B-](F)(F)F (stereo not drawn),1.95 µg/mL,3.9 µg/mL,0.97 µg/mL,7.81 µg/mL,,
CCN(CC)[c+]1sc2c(s1)C(c1ccc(F)cc1)Oc1ccc(F)cc1-2.F[B-](F)(F)F (stereo not drawn),7.81 µg/mL,15.6 µg/mL,3.9 µg/mL,125 µg/mL,,
CCN(CC)[c+]1sc2c(s1)C(c1ccc(I)cc1)Oc1ccc(Cl)cc1-2.F[B-](F)(F)F (stereo not drawn),0.24 µg/mL,1.95 µg/mL,0.48 µg/mL,0.97 µg/mL,,
CCN(CC)[c+]1sc2c(s1)C(c1ccc(Br)cc1)Oc1ccc(F)cc1-2.F[B-](F)(F)F (stereo not drawn),1.95 µg/mL,7.81 µg/mL,7.81 µg/mL,15.6 µg/mL,,
CCN(CC)[c+]1sc2c(s1)C(c1ccc(F)cc1)Oc1ccccc1-2.F[B-](F)(F)F (stereo not drawn),7.81 µg/mL,125 µg/mL,7.81 µg/mL,125 µg/mL,,
CCN(CC)[c+]1sc2c(s1)C(c1ccc(Cl)cc1)Oc1ccc(Cl)cc1-2.F[B-](F)(F)F (stereo not drawn),0.24 µg/mL,3.9 µg/mL,0.48 µg/mL,3.9 µg/mL,,
CCN(CC)[c+]1sc2c(s1)C(c1ccccc1)Oc1ccc(Cl)cc1-2.F[B-](F)(F)F (stereo not drawn),3.9 µg/mL,62.5 µg/mL,3.9 µg/mL,125 µg/mL,,
CCN(CC)[c+]1sc2c(s1)C(c1ccc(F)cc1)Oc1ccc(Cl)cc1-2.F[B-](F)(F)F (stereo not drawn),1.95 µg/mL,15.6 µg/mL,3.9 µg/mL,15.6 µg/mL,,
CC1(C)S[C@@H]2[C@H](NC(=O)[C@H](N)c3ccccc3)C(=O)N2[C@H]1C(=O)O [AMPICILLIN],7.81 µg/mL,7.81 µg/mL,,,,
C[S+](C)[O-] [DIMETHYL SULFOXIDE],,,,,250 uL/ml,125 uL/ml
NC[C@H]1O[C@H](O[C@H]2[C@H](O)[C@@H](O[C@H]3O[C@H](CO)[C@@H](O)[C@H](N)[C@H]3O)[C@H](N)C[C@@H]2N)[C@H](O)[C@@H](O)[C@@H]1O [KANAMYCIN],1.95 µg/mL,7.81 µg/mL,1.95 µg/mL,7.81 µg/mL,,
